Measured values published in patent US3966793A (priority 1964, dated 1976).

How the values were obtained:
mouse [1] = assay: Morphine excitation (M); format: in vivo; settings: PO, read-out: Morphine excitation, 50% effective dose
Excerpt: In the mouse, the action of morphine is different but also manifested by marked central excitation.

Acute toxicity (M) LD 50 = settings: in vivo, mouse
mice [2] = assay: Exploration test (mice); format: in vivo; settings: for ED50: Mus musculus, po, read-out: Exploration, 50% effective dose
Description: 5. Exploration test (mice)
This extremely simple test consists in placing a mouse at the center of a floor pierced with holes and in noting how many holes the mouse explores in 5 minutes. This test is carried out in a room in which complete silence is observed and which contains no person except the experimenter who is seated and still. It appeals to the curiosity of the animals. The doses of the compounds employed are, however, very small and considerably less than those required to impair movement. This simple test makes it possible to observe whether the compounds assayed produce a more or less pronounced lack of interest in the environment and it gives information which is interesting from the clinical point of view with regard to the treatment of anxiety and restlessness.

central nervous system = assay: Pharmacodynamic / central nervous system tests taken together; format: in vivo
Excerpt: A certain number of the compounds described in the present application have been studied with regard to their action on the central nervous system, as psycholeptics, myorrelaxants and tranquilizers. In addition, the acute toxicity has been determined for a number of these compounds.
It has thereby been possible to make quantitative comparisons of the activity of the different compounds for the different tests employed.

mouse [3] = assay: Antistrychnine activity; format: in vivo; settings: po, read-out: Anti-strychnine, 50% effective dose
Excerpt: 7. Antistrychnine activity

male rat = assay: Combativeness (rat); format: in vivo; settings: for ED50: rat, PO, read-out: Combativeness, 50% effective dose
Excerpt: It is possible to make a male rat aggressive towards another male rat enclosed in the same cage by passing an electric current of more or less high voltage through the floor of the cage.
This test, like the preceding one, can obviously give information of clinical value for the treatment of aggression diseases.

cats = assay: Aggressiveness (cat/mouse); format: in vivo; settings: Felis catus, SC, read-out: Aggressiveness, 50% effective dose
Excerpt: 9. Aggressiveness (cat/mouse)
In general, 75 to 80% of cats are aggressive when confronted with white mice. Psycholeptics and tranquilizers may make the cat indifferent and sometimes even amiable to the mouse. Similarly, in the case of cats that are furious and aggressive in relation to humans, diminution or suppression of the instinctive fear and establishment of a climate of confidence are observed.

mice [4] = assay: Balance test: rotating rod (mice) (Equilibration); format: in vivo; settings: for ED50: Mus musculus, po, read-out: Equilibration, 50% effective dose
Excerpt: 2. Balance test: rotating rod (mice)
This test consists in observing whether the treated animals are capable of maintaining their balance on a horizontal rod kept in rotation.
Numerous neuroleptic compounds or tranquilizers disturb the equilibration reflex.

mice [5] = assay: Anti-convulsant activity (anti-pentetrazole) (mice); format: in vivo; settings: mouse, PO; pentetrazole 125 mg./kg. IP; read-out: Anti-pentetrazole, 50% effective dose
Description: 3. Anti-convulsant activity (anti-pentetrazole) (mice)
Pentetrazole, injected intraperitoneally in a dose of 125 mg./kg. produces fatal convulsions in 100% of the animals.
Certain compounds exert a protective action preventing convulsions and permitting survival.

mice [6] = assay: Anti-convulsant activity (electric shock) (mice); format: in vivo; settings: for ED50: Mus musculus, po, read-out: Electric shock, 50% effective dose
Excerpt: 4. Anti-convulsant activity (electric shock) (mice)
The test consists in determining the intensity of the electric current required to produce a fatal shock in a batch of test animals.
Certain preventively administered compounds effectively protect a certain percentage of animals subjected to an electric current of an intensity which is fatal to untreated animals.

[7] = Reaction (pH) of aqueous solution; format: physicochemical
mouse [8] = assay: Ritaline provoked motor activity (M); format: in vivo; settings: PO, read-out: Ritaline provoked motor activity, 50% effective dose
Excerpt: (§1) 6. Spontaneous motor activity in the rat and mouse and provoked motor activity
(§2) The effect of drugs on voluntary movements of animals can be studied statistically by methods, the details of which will not be discussed here. The mouse, which is an extremely lively animal and moves about a great deal, is particularly suitable for this type of experiment.
(§3) Moreover, this spontaneous mobility can be exacerbated by preventive administration to the animals of certain substances such as benzedrine, mescaline and ritaline.
(§4) The experimental results obtained by these methods give valuable information for clinical purposes with regard to the treatment of ambulatory psychomotor crises.

mouse [9] = assay: Benzedrine provoked motor activity (M); format: in vivo; settings: PO, read-out: Benzedrine provoked motor activity, 50% effective dose
Excerpt: as §1, §2, §3, §4

mouse [10] = assay: Spontaneous motor activity in the mouse; format: in vivo; settings: for ED50: Mus musculus, po, read-out: Spontaneous motor activity, 50% effective dose
Excerpt: as §1, §2

rat [11] = assay: Spontaneous motor activity in the rat; format: in vivo; settings: for ED50: Rattus norvegicus, po, read-out: Spontaneous motor activity, 50% effective dose
Excerpt: as §1, §2

rat [12] = assay: Benzedrine provoked motor activity (R); format: in vivo; settings: PO, read-out: Benzedrine provoked motor activity, 50% effective dose
Excerpt: as §1, §2, §3, §4

mouse [13] = assay: Potentiation of narcosis (M); format: in vivo; settings: PO, read-out: Narcotic potentiation, 50% effective dose
Excerpt: 12. Potentiation of narcosis
Most psycholeptics are hypnotics in large doses, but many of them can, in small doses, without themselves producing any hypnosis, either prolong the time of sleep obtained with a true hypnotic (for example a barbiturate) or appreciably lower the dose of barbiturate required to obtain sleep.

cat = assay: Morphine crisis (C); format: in vivo; settings: Felis catus, SC, read-out: Morphine crisis, 50% effective dose
Excerpt: In the cat, morphine produces a specific state of excitation with hallucinations which can be attenuated or suppressed by certain psycholeptic drugs.

mouse [14] = assay: Mescaline provoked motor activity (M); format: in vivo; settings: PO, read-out: Mescaline provoked motor activity, 50% effective dose
Excerpt: as §1, §2, §3, §4

mice [15] = assay: Traction test (mice), myorelaxant activity; format: in vivo; settings: for ED50: Mus musculus, po, read-out: Traction, 50% effective dose
Excerpt: This consists in observing when the treated animals are capable of retrieving a rod grasped by the front paws only. Inability to carry this out was interpreted as a sign of myorelaxant activity.

rats = assay: Double box conditioning test (R); format: in vivo; settings: rat
Excerpt: The test used consists in educating rats to avoid an electric current passed through the floor of a cage of two compartments when they change compartments. The animal is first warned by a lamp which lights up in the compartment through which the current is passing while the other is in relative darkness.
This test, which requires more or less daily training at the rate of 50 times for each rat, makes it possible to follow the animals and note their progress. The performances realized at the end of a certain time (3 weeks to 1 month of training) are fairly constant, the percentage of errors made by adequately gifted subjects being less than 10 and very often even zero.
One would imagine that disturbances produced in these performances which call upon the memory of animals would be of great importance for the choice of a new medicament. A deconditioning drug of sufficient intensity could have the result of partly depriving the patient of the idea of danger and would consequently require special surveillance of the sick persons.

SMILES | ED50 (mouse [1]) [mg/kg] | LD50 (Acute toxicity (M) LD 50; PO) [mg/kg] | ED50 (mice [2]) [mg/kg] | ED50 (mouse [3]) [mg/kg] | ED50 (male rat) [mg/kg] | ED50 (cats) [mg/kg] | ED50 (mice [4]) [mg/kg] | ED50 (mice [5]) [mg/kg] | ED50 (mice [6]) [mg/kg] | Reaction / pH of aqueous solution [7] | ED50 (mouse [8]) [mg/kg] | ED50 (mouse [9]) [mg/kg] | ED50 (mouse [10]) [mg/kg] | ED50 (rat [11]) [mg/kg] | ED50 (rat [12]) [mg/kg] | ED50 (cat) [mg/kg] | ED50 (mouse [14]) [mg/kg] | Solubility in water (Solubility) | ED50 (mice [15]) [mg/kg] | also measured
O=C(O)C1N=C(c2ccccc2)c2cc(Cl)ccc2NC1=O.[K+].[K+].[OH-].[OH-] (stereo not shown) [4306 CB, 7-Chloro-2,3-dihydro-2-oxo-5-phenyl-1H-benzo[f]-1,4-diazepine-3-carboxylic acid, monopotassium salt, monopotassium hydroxide] | 50 | 700 | 4 | 25 | < 25 | 25 | 14 | 1.7 | 4.6 | strongly alkaline in reaction | 20 | > 20 | 5 | < 25 | > 100 | 25 | 20 | completely soluble in water | 1.1 | LD50 (Acute toxicity (M) LD 50; IP): 250 mg/kg; Exploration, 50% effective dose (mice [2]; mouse, PO, listed as Ca 2053): 6.25 mg/kg; Activity compared with diazepame (central nervous system; most of the tests): highly active and in most of the tests, it is at least equal and frequently superior to diazepame; Pharmacodynamic comparison of products obtained by the two methods (central nervous system; saponification of benzodiazepine ester or of imine diester): pharmacodynamic studies confirm the identity of the products obtained by the two methods; Equilibration, 50% effective dose (mice [4]; mouse, PO, listed as Ca 2053): 9.6 mg/kg; Electric shock, 50% effective dose (mice [6]; mouse, PO, listed as Ca 2053): 3 mg/kg; Spontaneous motor activity, 50% effective dose (mouse [10]; PO, listed as Ca 2053): 10 mg/kg; Spontaneous motor activity, 50% effective dose (rat [11]; PO, listed as Ca 2053): 25 mg/kg; ED50 (mouse [13]): 2 mg/kg; Traction, 50% effective dose (mice [15]; mouse, PO, listed as Ca 2053): 1.25 mg/kg
O=C(O)C1N=C(c2ccccc2)c2cc([N+](=O)[O-])ccc2NC1=O.[K+].[K+].[OH-].[OH-] (stereo not shown) [4335 CB, 7-Nitro-2,3-dihydro-2-oxo-5-phenyl-1H-benzo[f]-1,4-diazepine-3-carboxylic acid, monopotassium salt, monopotassium hydroxide] | 50 | 560 | 1.8 | > 20 | 10 | 25 | 4.3 | 0.44 | 3.2 | strongly alkaline in reaction | > 20 |  | 5 | 25 | 100 | 25 | 20 | dissolves completely in water | 1.25 | Activity in different tests, especially as myorelaxants and anticonvulsants (central nervous system; different tests of Table VI): extremely active in different tests; Effect on the faculties of displacement (central nervous system; in vivo): less effect on the faculties of displacement; Effect in diminishing aggressiveness (male rat; test for combativeness): marked effect in diminishing aggressiveness
O=C1CN=C(c2ccccc2)c2cc(Cl)ccc2N1 [Nor-diazepame, 7-Chloro-5-phenyl-2-oxo-2,3-dihydro-1H-benzo[f]-1,4-diazepine, reference compound] |  |  | 7.8 |  | 100 |  | 8.6 | 2.9 | 9 |  |  | > 20 | 50 | 50 | 100 |  |  |  | 3.5 | Double box conditioning, effect in words (rats): Without effect
